Results: patent publication US10023543B2 (CELGENE QUANTICEL RESEARCH, INC., priority 2014, dated 2018)
Structures can show the parent of a compound that is named as a salt. Where two headings read alike, the source gives them in different places.

What was measured:
full-length human LSD1 = full-length human LSD1 (Homo sapiens (Human), UniProt O60341); experiment: In vitro enzyme inhibition assay LSD-1 (TR-FRET); type: biochemical; details: H3K4me1-biotin peptide
Description: This assay determines the ability of a test compound to inhibit LSD1 demethylase activity.
The enzymatic assay of LSD1 activity is based on Time Resolved-Fluorescence Resonance Energy Transfer (TR-FRET) detection.
Enzymatic reaction is terminated within 15 minutes if 0.5 LSD1 enzyme is used in the plate.
The ability of the compounds disclosed herein to inhibit LSD1 activity was quantified and the respective IC50 value was determined.

THP-1 (AML) cells = experiment: LSD1 CD11b cellular assay (flow cytometry); type: cell-based; details: Homo sapiens, THP-1, 96 h
Kasumi-1 = Kasumi-1 AML cell line proliferation assay (Cell-MTS assay); type: cell-based; details: Homo sapiens, 168 hours
Source text: Colorimetric cellular assay to assess the ability of LSD-1 small molecule inhibitors to effect the proliferation of the established AML cancer cell line Kasumi-1.
This Cell-MTS assay is a 7-day plate based colorimetric assay which quantifies the amount of newly generated NADH in the presence and absence of test compound. These NADH levels are used as a proxy for the quantification of cancer cell proliferation.
The established cancer cell line Kasumi-1 with a verified p53 mutation were purchased from American Type Culture Collection (ATCC) and routinely passaged according to ATCC published protocols. For routine assay these cells were seeded at a density of 20,000 cells per 96-well. […] At the end of this compound incubation period, 80 μl of media is removed and 20 μL of CellTiter 96® AQueous Non-Radioactive Cell Proliferation Assay solution (Promega) is added. The cells are incubated until the OD490 is >0.6. IC50 values are calculated using the IDBS XLfit software package and include background subtracted OD490 values and normalization to DMSO controls.

[1] = CD11b expressing cells, 4 days, read-out: THP-1 IC50

| Compound | IC50 (full-length human LSD1) | IC50 (THP-1 (AML) cells; [1]) | IC50 (Kasumi-1) | IC50 (THP-1 (AML) cells; read-out: THP-1 IC50 (μM)) |
| --- | --- | --- | --- | --- |
| Cn1c(N2CCC(N)CC2)nc(-c2ccc(C#N)c(F)c2)c(-c2ccc(OCCO)cc2)c1=O [Example 96, 4-[2-(4-aminopiperidin-1-yl)-5-[4-(2-hydroxyethoxy)phenyl]-1-methyl-6-oxopyrimidin-4-yl]-2-fluorobenzonitrile] | < 100 nM | < 0.1 µM |  |  |
| COc1ccc(-c2c(-c3ccc(C#N)cc3)nc(N3CCC(N)CC3)n(C)c2=O)cn1 [Example 3, 4-[2-(4-amino-piperidin-1-yl)-5-(6-methoxy-pyridin-3-yl)-1-methyl-6-oxo-1,6-dihydro-pyrimidin-4-yl]-benzonitrile] |  | < 0.1 µM | < 100 nM |  |
| Cn1c(N2CCC(N)CC2)nc(-c2ccc(C#N)c(F)c2)c(-c2ccc3c(cnn3C)c2)c1=O [Example 35, 4-[2-(4-amino-piperidin-1-yl)-1-methyl-5-(1-methyl-1H-indazol-5-yl)-6-oxo-1,6-dihydro-pyrimidin-4-yl]-2-fluoro-benzonitrile] |  | < 0.1 µM | < 100 nM |  |
| Cc1ccc(-c2c(-c3ccc(C#N)cc3)nc(N3CCC(N)CC3)n(C)c2=O)cn1 [Example 4, 4-[2-(4-amino-piperidin-1-yl)-1-methyl-5-(6-methyl-pyridin-3-yl)-6-oxo-1,6-dihydro-pyrimidin-4-yl]-benzonitrile] |  | < 0.1 µM | 100 to 1000 nM |  |
| COc1ccc(-c2c(-c3ccc(C#N)cc3)nc(N3CCC(N)CC3)n(C)c2=O)cc1F [Example 5] |  |  | < 100 nM | < 0.1 µM |
| Cn1cc2cc(-c3c(-c4ccc(C#N)c(F)c4)nc(N4CCCNCC4)n(C)c3=O)ccc2n1 [Example 66, 4-[2-[1,4]diazepan-1-yl-1-methyl-5-(2-methyl-2H-indazol-5-yl)-6-oxo-1,6-dihydro-pyrimidin-4-yl]-2-fluoro-benzonitrile] |  | < 0.1 µM | < 100 nM |  |
| Cn1cc2cc(-c3c(-c4ccc(C#N)cc4)nc(N4CCC(N)CC4)n(C)c3=O)ccc2n1 [Example 24, 4-[2-(4-aminopiperidyl)-1-methyl-5-(2-methyl(2H-indazol-5-yl))-6-oxohydropyrimidin-4-yl]benzenecarbonitrile] |  | < 0.1 µM | < 100 nM |  |
| Cc1ccc(-c2c(-c3ccc(C#N)cc3)nc(N3CCC(N)CC3)n(C)c2=O)cc1 [Example 1, 4-(2-(4-aminopiperidin-1-yl)-1-methyl-6-oxo-5-p-tolyl-1,6-dihydropyrimidin-4-yl)benzonitrile, HCl salt] |  |  | < 100 nM | < 0.1 µM |
| CN(C)C1CCN(c2nc(-c3ccc(C#N)c(F)c3)c(-c3ccc4nn(C)cc4c3)c(=O)n2C)CC1 [Example 71, 4-[2-(4-dimethylamino-piperidin-1-yl)-1-methyl-5-(2-methyl-2H-indazol-5-yl)-6-oxo-1,6-dihydro-pyrimidin-4-yl]-2-fluoro-benzonitrile] |  | < 0.1 µM | < 100 nM |  |
| Cn1c(N2CCC(N)CC2)nc(-c2ccc(C#N)c(F)c2)c(-c2cnn(CC(F)(F)F)c2)c1=O [Example 34, 4-{2-(4-amino-piperidin-1-yl)-1-methyl-6-oxo-5-[1-(2,2,2-trifluoro-ethyl)-1H-pyrazol-4-yl]-1,6-dihydro-pyrimidin-4-yl}-2-fluoro-benzonitrile] |  | < 0.1 µM | < 100 nM |  |
| COc1ccc(-c2c(-c3ccc(C#N)c(F)c3)nc(N3CCC(N)CC3)n(C)c2=O)cc1 [Example 6, 4-[2-(4-amino-piperidin-1-yl)-5-(4-methoxy-phenyl)-1-methyl-6-oxo-1,6-dihydro-pyrimidin-4-yl]-2-fluoro-benzonitrile] |  | < 0.1 µM | < 100 nM |  |
| Cn1c(N2CCC(N)CC2)nc(-c2ccc(C#N)c(F)c2)c(-c2ccc3[nH]ncc3c2)c1=O [Example 88, 4-[2-(4-aminopiperidin-1-yl)-5-(1H-indazol-5-yl)-1-methyl-6-oxopyrimidin-4-yl]-2-fluorobenzonitrile] |  | < 0.1 µM | < 100 nM |  |
| Cn1c(N2CCC(N)CC2)nc(-c2ccc(C#N)cc2)c(-c2cnn(CC(F)(F)F)c2)c1=O [Example 36, 4-{2-(4-amino-piperidin-1-yl)-1-methyl-6-oxo-5-[1-(2,2,2-trifluoro-ethyl)-1H-pyrazol-4-yl]-1,6-dihydro-pyrimidin-4-yl}-benzonitrile] |  | < 0.1 µM | < 100 nM |  |
| Cc1ccc(-c2c(-c3ccc(C#N)c(F)c3)nc(N3CCC(N)CC3)n(C)c2=O)cn1 [Example 9] |  | < 0.1 µM | < 100 nM |  |
